Target: T1, NLRP3 inflammasome (Homo sapiens, UniProt Q96P20)
T1 construct: freshly isolated from human peripheral blood from healthy donors; StemCells Technologies; host or cells: primary human PBMCs
Assay: NLRP3 inflammasome activation assay in LPS-primed, nigericin-stimulated PBMCs, IL-1β release
Format: cell-based
Details: IL-1B pIC50 (μM), LPS 100 ng/mL priming, 10 μM nigericin
Protocol: Some of the following assays were used to determine the inhibitory activity of the compounds on the NLRP3 inflammasome using a common inflammasome activation stimuli-nigericin.
Human peripheral blood mononuclear cells (PBMCs), consisting of lymphocytes (T, B and NK cells), monocytes and dendritic cells, are freshly isolated from human peripheral blood from healthy donors. Cells are obtained through an IRB approved donor program by iXCells Biotechnologies where all the donors are tested for bacterial and viral infections. Cells are purified from peripheral blood using ficoll gradient centrifugation.
Fresh or cryopreserved PMBCs are seeded in V-bottom 96-well plate at 0.5-1×10^5 cells per well and incubated overnight at 37° C. with 5% CO2 in RPMI 1640 medium with GlutaMAX supplement, 4.5 g/L D-glucose, 10% Fetal Bovine Serum (FBS), […] Sodium Pyruvate, 1% Penicillin/Streptomycin, 10 mM HEPES and 0.05 mM of […]. Freshly isolated or cryopreserved KCs cells are seeded in flat-bottom 96-well plates at 0.6-1.5×10^5 cells/well and incubated overnight at 37° C., 5% CO2 in RPMI 1640 Medium with GlutaMAX supplement, FBS, 1% Penicillin/Streptomycin and 10 mM HEPES. The following day, the cells are primed with 100 ng/mL of lipopolysaccharides (LPS; Sigma Aldrich) in FBS-free RPMI 1640 for 3 h. After the priming step, the media is removed and PBMCs are pre-incubated with serial concentrations of test compounds (0.00017-10 uM) or vehicle (DMSO) for 30 min in FBS-free media prior to addition of the NLRP3 activator. Cells are then stimulated with 10 μM Nigericin (Sigma Aldrich; InvivoGen) for 1.5 h. Plates were centrifuged at 1,500 rpm for 3 minutes to pellet cells and supernatant was transferred into new plates for subsequent experiments.
For ELISA assays cells are seeded into 96-well plates. Post study, supernatants are removed and the levels of mature IL-1β, IL18 and TNFα (Quantikine ELISA, R&D systems) are measured in cell conditioned media by ELISA according to manufacturer's instructions.
Human frozen PBMCs were purchased from StemCells Technologies. Cells were rapidly thawed in 37° C. water bath and resuspended in fresh assay media consisting of RPMI 1640 Medium containing 1% sodium pyruvate, 10 mM HEPES, 2.5 g/L glucose and 55 μM 2-Mercaptoethanol. Cell density was adjusted to 8.1×10^5 cells/mL. Cells were primed by adding lipopolysaccharide (Invivogen Ultrapure lipopolysaccharide from E. coli, tlrl-3pelps) at a final concentration of 100 ng/mL in cell suspension. 37 μL of cell suspension with LPS was seeded per well of a 384 well plate and incubated for 3 hours at 37° C. and 5% CO2. After priming, PBMCs were preincubated with serially diluted test compounds with starting concentration of 40 μM followed by 2-fold dilution for a 20-point curve or vehicle (DMSO) for 30 min in assay media at 37° C. and 5% CO2. Cells were then stimulated with 10 μM nigericin (Invivogen, tlrl-nig-5) for 90 min at 37° C. and 5% CO2 to activate NLRP3 dependent inflammasome pathway and IL-1β release in cell culture supernatant. Cells were centrifuged at 1200 RPM for 1 min and 40 μL of supernatant was transferred into fresh plates and stored at −80° C. until IL-1β analysis.
16 μL of supernatant was added to white 384 well HTRF plates, followed by addition of 4 μL of HTRF cocktail in each well. Plates were quickly centrifuged, sealed and incubated overnight at room temperature. Next day, HTRF signal was read on a Pherastar and ratio of 665/620 was calculated based on manufacturer's protocol to obtain concentration of IL-1β in cell culture supernatant.

T1 sequence (Q96P20 whole entry): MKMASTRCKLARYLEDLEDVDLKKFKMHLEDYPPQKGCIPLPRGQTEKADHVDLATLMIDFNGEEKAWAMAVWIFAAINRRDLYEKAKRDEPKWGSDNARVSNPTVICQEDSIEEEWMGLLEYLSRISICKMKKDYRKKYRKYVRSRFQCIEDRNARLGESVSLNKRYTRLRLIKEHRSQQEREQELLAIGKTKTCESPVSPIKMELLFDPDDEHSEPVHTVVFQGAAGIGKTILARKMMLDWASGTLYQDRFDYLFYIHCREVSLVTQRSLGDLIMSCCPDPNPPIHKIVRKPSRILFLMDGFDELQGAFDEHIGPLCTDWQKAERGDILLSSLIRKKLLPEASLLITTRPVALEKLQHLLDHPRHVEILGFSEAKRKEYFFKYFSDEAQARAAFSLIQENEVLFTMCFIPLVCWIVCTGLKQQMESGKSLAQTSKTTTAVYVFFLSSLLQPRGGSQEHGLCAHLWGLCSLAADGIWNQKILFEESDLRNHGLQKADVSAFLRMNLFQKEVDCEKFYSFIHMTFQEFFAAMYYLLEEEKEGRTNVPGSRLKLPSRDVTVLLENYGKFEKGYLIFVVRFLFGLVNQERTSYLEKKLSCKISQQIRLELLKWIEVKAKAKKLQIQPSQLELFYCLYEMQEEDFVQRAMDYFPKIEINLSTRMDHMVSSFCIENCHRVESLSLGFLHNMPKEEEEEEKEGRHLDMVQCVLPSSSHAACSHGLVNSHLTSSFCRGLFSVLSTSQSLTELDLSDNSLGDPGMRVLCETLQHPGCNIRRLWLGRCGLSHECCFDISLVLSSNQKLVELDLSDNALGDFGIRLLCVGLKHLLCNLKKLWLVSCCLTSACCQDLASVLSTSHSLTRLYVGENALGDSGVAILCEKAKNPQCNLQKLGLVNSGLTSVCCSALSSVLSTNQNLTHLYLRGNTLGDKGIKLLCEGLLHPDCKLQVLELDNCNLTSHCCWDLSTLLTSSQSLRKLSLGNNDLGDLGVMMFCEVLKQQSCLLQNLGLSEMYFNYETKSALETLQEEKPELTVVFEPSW

Row | Structure (SMILES) | IC50 [µM]
1 | COc1cc(OC)nc(NC(=O)NS(=O)(=O)c2cnn3c2OCCC3)n1 [drawing 383] | > 10
2 | COc1cc(C)nc(NC(=O)NS(=O)(=O)c2cnn3c2OCCC3)n1 [drawing 384] | > 10

Same assay, conditions: LPS 100 ng/mL priming, 10 μM nigericin; read-out: IL-1B pIC50 (converted)

Row | Structure (SMILES) | IC50 [µM]
3 | O=C(Nc1c2c(n3c1CCC3)CCCC2=O)NS(=O)(=O)c1cnn2c1OCCC2 [drawing 395] | > 10
4 | O=C(NC1c2ccccc2-c2ccccc21)NS(=O)(=O)c1cnn2c1OCCC2 [drawing 370] | > 10
5 | O=C(Nc1nc(Cl)cc(Cl)n1)NS(=O)(=O)c1cnn2c1OCCC2 [drawing 369] | > 10
6 | Cc1cc(C)nc(NC(=O)NS(=O)(=O)c2cnn3c2OCCC3)n1 [drawing 390] | > 10
7 | O=C(NC1(c2ccccc2)CCCCCC1)NS(=O)(=O)c1cnn2c1OCCC2 [drawing 377] | > 10
8 | CC(C)(C)c1cc(C(C)(C)C)nc(NC(=O)NS(=O)(=O)c2cnn3c2OCCC3)n1 [drawing 387] | > 10
9 | O=C(Nc1c(-c2ccccc2)nc2ccccn12)NS(=O)(=O)c1cnn2c1OCCC2 [drawing 375] | > 10
10 | CC1(C)CCc2ccccc2C1NC(=O)NS(=O)(=O)c1cnn2c1OCCC2 (stereo not drawn) [drawing 366] | > 10
11 | CC(C)(C)c1cc(NC(=O)NS(=O)(=O)c2cnn3c2OCCC3)n(C(C)(C)C)n1 [drawing 403] | > 10
12 | Cc1ccc(Br)c(NC(=O)NS(=O)(=O)c2cnn3c2OCCC3)n1 [drawing 385] | > 10
13 | O=C(NC1c2ccccc2CC12CCOCC2)NS(=O)(=O)c1cnn2c1OCCC2 (stereo not drawn) [drawing 367] | > 10
14 | O=C(Nc1nc(-c2ccccc2)cc2c1CCC2)NS(=O)(=O)c1cnn2c1OCCC2 [drawing 388] | > 10
15 | C=C(C)c1cncc(C(=C)C)c1NC(=O)NS(=O)(=O)c1cnn2c1OCCC2 [drawing 392] | > 10
16 | CC(C)c1nn(C)c(C(C)C)c1NC(=O)NS(=O)(=O)c1cnn2c1OCCC2 [drawing 391] | 1 to 10
17 | CC1(C)COc2c(S(=O)(=O)NC(=O)NC3CCCCc4ccccc43)cnn2C1 (stereo not drawn) [drawing 413] | > 10

Continued, values first:

Row | IC50 [µM] | Structure (SMILES)
18 | > 10 | CC1Cc2ccccc2C1NC(=O)NS(=O)(=O)c1cnn2c1OCCC2 (stereo not drawn) [drawing 371]
19 | > 10 | CC1CCCC(C)N1NC(=O)NS(=O)(=O)c1cnn2c1OCCC2 (stereo not drawn)
20 | > 10 | Cc1nc(NC(=O)NS(=O)(=O)c2cnn3c2OCCC3)nc2c1CCCC2 [drawing 389]
21 | > 10 | CC(C)c1cc(Cl)nc(NC(=O)NS(=O)(=O)c2cnn3c2OCCC3)n1 [drawing 381]
22 | > 10 | Cc1cc(C2CC2)nc(NC(=O)NS(=O)(=O)c2cnn3c2OCCC3)n1 [drawing 386]
23 | > 10 | O=C(NN1CC2CCCC2C1)NS(=O)(=O)c1cnn2c1OCCC2 (stereo not drawn)
24 | > 10 | O=C(NN1CCOc2ccccc21)NS(=O)(=O)c1cnn2c1OCCC2
25 | > 10 | Cc1cc(NC(=O)NS(=O)(=O)c2cnn3c2OCCC3)n(C(C)C)n1 [drawing 410]
26 | > 10 | O=C(NN1CCCCCC1)NS(=O)(=O)c1cnn2c1OCCC2 [drawing 379]

Same assay, conditions: PBMC, LPS priming, 10 μM nigericin; read-out: PMBC IL-1β IC50

Row | Structure (SMILES) | IC50 [µM]
27 | CC(C)c1nn(C)c(C(C)C)c1NC(=O)NS(=O)(=O)c1cnn2c1OCCC2 [Example 26, N-((3,5-diisopropyl-1-methyl-1H-pyrazol-4-yl)carbamoyl)-6,7-dihydro-5H-pyrazolo[5,1-b][1,3]oxazine-3-sulfonamide] | > 10
28 | Cc1ccc(Br)c(NC(=O)NS(=O)(=O)c2cnn3c2OCCC3)n1 [Example 20, N-((3-bromo-6-methylpyridin-2-yl)carbamoyl)-6,7-dihydro-5H-pyrazolo[5,1-b][1,3]oxazine-3-sulfonamide] | > 10
29 | O=C(NC1c2ccccc2-c2ccccc21)NS(=O)(=O)c1cnn2c1OCCC2 [Example 5, N-((9H-fluoren-9-yl)carbamoyl)-6,7-dihydro-5H-pyrazolo[5,1-b][1,3]oxazine-3-sulfonamide] | > 10
30 | O=C(NC1(c2ccccc2)CCCCCC1)NS(=O)(=O)c1cnn2c1OCCC2 [Example 12, N-((1-phenylcycloheptyl)carbamoyl)-6,7-dihydro-5H-pyrazolo[5,1-b][1,3]oxazine-3-sulfonamide] | > 10
31 | O=C(NC1c2ccccc2CC12CCOCC2)NS(=O)(=O)c1cnn2c1OCCC2 (stereo not drawn) [Example 2, N-((1,2′,3,3′,5′,6′-hexahydrospiro[indene-2,4′-pyran]-1-yl)carbamoyl)-6,7-dihydro-5H-pyrazolo[5,1-b][1,3]oxazine-3-sulfonamide] | > 10
32 | CC(C)(C)c1cc(NC(=O)NS(=O)(=O)c2cnn3c2OCCC3)n(C(C)(C)C)n1 [Example 36, N-((1,3-di-tert-butyl-1H-pyrazol-5-yl)carbamoyl)-6,7-dihydro-5H-pyrazolo[5,1-b][1,3]oxazine-3-sulfonamide, ammonia] | > 10
33 | CC1(C)CCc2ccccc2C1NC(=O)NS(=O)(=O)c1cnn2c1OCCC2 (stereo not drawn) [Example 1, N-((2,2-dimethyl-1,2,3,4-tetrahydronaphthalen-1-yl)carbamoyl)-6,7-dihydro-5H-pyrazolo[5,1-b][1,3]oxazine-3-sulfonamide] | > 10
34 | O=C(Nc1c2c(n3c1CCC3)CCCC2=O)NS(=O)(=O)c1cnn2c1OCCC2 [Example 29, N-((8-oxo-2,3,5,6,7,8-hexahydro-1H-pyrrolo[1,2-a]indol-9-yl)carbamoyl)-6,7-dihydro-5H-pyrazolo[5,1-b][1,3]oxazine-3-sulfonamide] | > 10
35 | O=C(NC(c1ccccc1)c1ccccc1)NS(=O)(=O)c1cnn2c1OCCC2 [Example 15, N-(benzhydrylcarbamoyl)-6,7-dihydro-5H-pyrazolo[5,1-b][1,3]oxazine-3-sulfonamide] | > 10
36 | O=C(Nc1c(-c2ccccc2)nc2ccccn12)NS(=O)(=O)c1cnn2c1OCCC2 [Example 10, N-((2-phenylimidazo[1,2-a]pyridin-3-yl)carbamoyl)-6,7-dihydro-5H-pyrazolo[5,1-b][1,3]oxazine-3-sulfonamide] | > 10

The remaining lines, values ahead:

Row | IC50 [µM] | Structure (SMILES)
37 | > 10 | CC1CCCC(C)N1NC(=O)NS(=O)(=O)c1cnn2c1OCCC2 (mixture of isomers) [Example 7, N-((2,6-dimethylpiperidin-1-yl)carbamoyl)-6,7-dihydro-5H-pyrazolo[5,1-b][1,3]oxazine-3-sulfonamide]
38 | > 10 | O=C(NN1CCCCCC1)NS(=O)(=O)c1cnn2c1OCCC2 [Example 14, N-(azepan-1-ylcarbamoyl)-6,7-dihydro-5H-pyrazolo[5,1-b][1,3]oxazine-3-sulfonamide]
39 | > 10 | O=C(NC1CCOc2ccccc21)NS(=O)(=O)c1cnn2c1OCCC2 (racemic) [Example 9, N-(chroman-4-ylcarbamoyl)-6,7-dihydro-5H-pyrazolo[5,1-b][1,3]oxazine-3-sulfonamide]
40 | > 10 | Cc1cc(NC(=O)NS(=O)(=O)c2cnn3c2OCCC3)n(C(C)C)n1 [Example 43, N-((1-isopropyl-3-methyl-1H-pyrazol-5-yl)carbamoyl)-6,7-dihydro-5H-pyrazolo[5,1-b][1,3]oxazine-3-sulfonamide]
41 | > 10 | O=C(NN1CC2CCCC2C1)NS(=O)(=O)c1cnn2c1OCCC2 (single isomer, unassigned) [Example 13a, N-((hexahydrocyclopenta[c]pyrrol-2(1H)-yl)carbamoyl)-6,7-dihydro-5H-pyrazolo[5,1-b][1,3]oxazine-3-sulfonamide]
42 | > 10 | CC1Cc2ccccc2C1NC(=O)NS(=O)(=O)c1cnn2c1OCCC2 (stereo not drawn) [Example 6, N-((2-methyl-2,3-dihydro-1H-inden-1-yl)carbamoyl)-6,7-dihydro-5H-pyrazolo[5,1-b][1,3]oxazine-3-sulfonamide]
